31 compounds from patent publication US10316028B2, “Orexin receptor antagonists” (Heptares Therapeutics Limited, priority 2012, dated 2019) can be followed below.

SMILES strings stand for the structures.

The target in the assay is T1, human Orexin-2 receptor (Homo sapiens, UniProt O43614).
T1 construct: expressed in transfected cells; host or cells: HEK293 cells (transient transfection, Genejuice); membranes
T1 sequence (O43614 1-444): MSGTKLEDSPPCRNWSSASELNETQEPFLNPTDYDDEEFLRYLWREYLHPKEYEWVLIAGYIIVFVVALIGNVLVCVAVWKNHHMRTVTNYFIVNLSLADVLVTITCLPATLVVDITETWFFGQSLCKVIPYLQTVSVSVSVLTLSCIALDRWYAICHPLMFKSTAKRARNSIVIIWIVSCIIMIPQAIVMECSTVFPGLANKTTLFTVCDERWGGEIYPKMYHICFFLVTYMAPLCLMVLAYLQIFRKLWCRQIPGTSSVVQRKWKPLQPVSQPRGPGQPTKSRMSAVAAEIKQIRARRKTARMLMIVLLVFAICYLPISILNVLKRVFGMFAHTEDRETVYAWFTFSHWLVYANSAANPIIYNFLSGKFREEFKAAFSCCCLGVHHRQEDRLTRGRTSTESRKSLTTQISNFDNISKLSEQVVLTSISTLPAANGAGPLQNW
The assay can be described thus: 3H-EMPA radioligand binding assay. The conditions noted are these: 3H-EMPA displacement, membranes of HEK293 cells transfected with human Orexin-2 receptor; KI by Cheng-Prussoff; read-out: OX2 pKi ave (converted). As to the method: cDNA encoding the human Orexin-2 receptor was transfected into HEK293 cells using the transfection reagent Genejuice (Novagen). Forty-eight hours after transfection, cells were harvested and washed twice with ice cold phosphate-buffered saline. The pellet was resuspended in ice-cold buffer containing 20 mM Tris-HCl, pH 7.4, 1 mM EDTA and homogenised with an Ultraturax for 30 s at maximum speed. After centrifugation at 48,000 g for 30 min at 4° C., the pellet was resuspended and spun again. The final pellet was resuspended and frozen at −80° C. before use. Protein concentration was determined using the BCA protein assay method.
^3H-EMPA Radioligand Binding Assay
At the end of the incubation, membranes were filtered onto a unifilter, a 96-well white microplate with bonded GF/B filter pre-incubated with 0.5% polyethylenimine, with a Tomtec cell harvester and washed 4 times with distilled water. […] Radioactivity on the filter was counted (1 min) on a microbeta counter after addition of 50 µL of scintillation fluid. […] IC50 values were derived from the inhibition curve and the equilibrium dissociation constant (KI) values were calculated using the Cheng-Prussoff equation.
In the case of `COc1ccc(N2C(=O)N(Cc3ccc4c(c3)OCO4)c3ccccc3S2(=O)=O)cc1OC` [Example 1, 4-(1,3-benzodioxol-5-ylmethyl)-2-(3,4-dimethoxyphenyl)-2H-1,2,4-benzothiadiazin-3(4H)-one 1,1-dioxide], the Ki was 316 nM.

Take `COc1ccc(CN2C(=O)N(c3ccc(OC)c(OC)c3)S(=O)(=O)c3ccccc32)cc1F` [Example 2, 2-(3,4-dimethoxyphenyl)-4-(3-fluoro-4-methoxybenzyl)-2H-1,2,4-benzothiadiazin-3(4H)-one 1,1-dioxide]: the Ki was 141 nM.

For the compound `COc1cccc(CN2C(=O)N(c3cc(OC)cc(OC)c3)S(=O)(=O)c3ccccc32)c1` [Example 3, 2-(3,5-dimethoxyphenyl)-4-(3-methoxybenzyl)-2H-1,2,4-benzothiadiazin-3(4H)-one 1,1-dioxide], the Ki was 447 nM.

Turning to `COc1ccc(N2C(=O)N(Cc3cccc(C#N)c3)c3ccccc3S2(=O)=O)cc1OC` [Example 4, 3-{[2-(3,4-dimethoxyphenyl)-1,1-dioxido-3-oxo-2,3-dihydro-4H-1,2,4-benzothiadiazin-4-yl]methyl}benzonitrile], the Ki was 355 nM.

Take `COc1ccc(N2C(=O)N(Cc3ccccc3)c3ccccc3S2(=O)=O)cc1OC` [Example 5, 4-benzyl-2-(3,4-dimethoxyphenyl)-2H-1,2,4-benzothiadiazin-3(4H)-one 1,1-dioxide]: the Ki was 89.1 nM.

As for `COc1cc(OC)cc(N2C(=O)N(Cc3cccc(C)c3)c3ccccc3S2(=O)=O)c1` [Example 6, 2-(3,5-dimethoxyphenyl)-4-(3-methylbenzyl)-2H-1,2,4-benzothiadiazin-3(4H)-one 1,1-dioxide], the Ki was 468 nM.

Regarding `COc1ccc(N2C(=O)N(Cc3ccc(C)cc3)c3ccccc3S2(=O)=O)cc1OC` [Example 7, 2-(3,4-dimethoxyphenyl)-4-(4-methylbenzyl)-2H-1,2,4-benzothiadiazin-3(4H)-one 1,1-dioxide], the Ki is 37.2 nM.

As for `COc1ccc(N2C(=O)N(Cc3ccc(F)cc3)c3ccccc3S2(=O)=O)cc1OC` [Example 8, 2-(3,4-dimethoxyphenyl)-4-(4-fluorobenzyl)-2H-1,2,4-benzothiadiazin-3(4H)-one 1,1-dioxide], the Ki is 56.2 nM.

Regarding `CSc1cccc(N2C(=O)N(Cc3cccc(Br)c3)c3ccccc3S2(=O)=O)c1` [Example 9, 4-(3-bromobenzyl)-2-[3-(methylsulfanyl)phenyl]-2H-1,2,4-benzothiadiazin-3(4H)-one 1,1-dioxide], the Ki was 35.5 nM.

As to `COc1cccc(N2C(=O)N(Cc3ccc(OC)c(F)c3)c3ccccc3S2(=O)=O)c1` [Example 10, 4-(3-fluoro-4-methoxybenzyl)-2-(3-methoxyphenyl)-2H-1,2,4-benzothiadiazin-3(4H)-one 1,1-dioxide], the Ki is 117 nM.

`CCc1cccc(N2C(=O)N(Cc3ccc(OC)c(F)c3)c3ccccc3S2(=O)=O)c1` [Example 11, 2-(3-ethylphenyl)-4-(3-fluoro-4-methoxybenzyl)-2H-1,2,4-benzothiadiazin-3(4H)-one 1,1-dioxide]: the Ki was 47.9 nM.

On to `Cc1ccc(N2C(=O)N(Cc3cccc(F)c3)c3ccccc3S2(=O)=O)cc1Cl` [Example 12, 4-(3-fluorobenzyl)-2-(3-chloro-4-methylphenyl)-2H-1,2,4-benzothiadiazin-3(4H)-one 1,1-dioxide], for which the Ki is 34.7 nM.

With `COc1cc(OC)cc(N2C(=O)N(Cc3ccccc3F)c3ccccc3S2(=O)=O)c1` [Example 13, 2-(3,5-dimethoxyphenyl)-4-(2-fluorobenzyl)-2H-1,2,4-benzothiadiazin-3(4H)-one 1,1-dioxide], the Ki was 26.9 nM.

As to `COc1cccc(N2C(=O)N(Cc3ccccc3F)c3ccccc3S2(=O)=O)c1` [Example 14, 4-(2-fluorobenzyl)-2-(3-methoxyphenyl)-2H-1,2,4-benzothiadiazin-3(4H)-one 1,1-dioxide], the Ki was 200 nM.

Consider `COc1cc(OC)cc(N2C(=O)N(Cc3ccccc3C)c3ccccc3S2(=O)=O)c1` [Example 15, 2-(3,5-dimethoxyphenyl)-4-(2-methylbenzyl)-2H-1,2,4-benzothiadiazin-3(4H)-one 1,1-dioxide], for which the Ki was 29.5 nM.

`COc1cc(OC)cc(N2C(=O)N(Cc3ccccc3Cl)c3ccccc3S2(=O)=O)c1` [Example 16, 4-(2-chlorobenzyl)-2-(3,5-dimethoxyphenyl)-2H-1,2,4-benzothiadiazin-3(4H)-one 1,1-dioxide]: the Ki is 31.6 nM.

On to `COC(=O)c1ccc(OC)c(CN2C(=O)N(c3cc(OC)cc(OC)c3)S(=O)(=O)c3ccccc32)c1` [Example 17, methyl 3-{[2-(3,5-dimethoxyphenyl)-1,1-dioxido-3-oxo-2,3-dihydro-4H-1,2,4-benzothiadiazin-4-yl]methyl}-4-methoxybenzoate], for which the Ki was 13.5 nM.

As to `COc1ccc(N2C(=O)N(Cc3ccccc3C)c3ccccc3S2(=O)=O)cc1OC` [Example 18, 2-(3,4-dimethoxyphenyl)-4-(2-methylbenzyl)-2H-1,2,4-benzothiadiazin-3(4H)-one 1,1-dioxide], the Ki was 14.8 nM.

Turning to `COc1ccc(N2C(=O)N(Cc3ccccc3Cl)c3ccccc3S2(=O)=O)cc1OC` [Example 19, 4-(2-chlorobenzyl)-2-(3,4-dimethoxyphenyl)-2H-1,2,4-benzothiadiazin-3(4H)-one 1,1-dioxide], the Ki was 18.6 nM.

Regarding `COc1ccc(N2C(=O)N(Cc3c(F)cccc3Cl)c3ccccc3S2(=O)=O)cc1OC` [Example 20, 4-(2-chloro-6-fluorobenzyl)-2-(3,4-dimethoxyphenyl)-2H-1,2,4-benzothiadiazin-3(4H)-one 1,1-dioxide], the Ki was 0.741 nM.

With `COc1ccc(N2C(=O)N(Cc3ccc(F)cc3Cl)c3ccccc3S2(=O)=O)cc1OC` [Example 21, 4-(2-chloro-4-fluorobenzyl)-2-(3,4-dimethoxyphenyl)-2H-1,2,4-benzothiadiazin-3(4H)-one 1,1-dioxide], the Ki is 23.4 nM.

In the case of `CSc1cccc(N2C(=O)N(Cc3ccccc3Cl)c3ccccc3S2(=O)=O)c1` [Example 22, 4-(2-chlorobenzyl)-2-[3-(methylsulfanyl)phenyl]-2H-1,2,4-benzothiadiazin-3(4H)-one 1,1-dioxide], the Ki is 23.4 nM.

On to `CSc1cccc(N2C(=O)N(Cc3ccccc3F)c3ccccc3S2(=O)=O)c1` [Example 23, 4-(2-fluorobenzyl)-2-[3-(methylsulfanyl)phenyl]-2H-1,2,4-benzothiadiazin-3(4H)-one 1,1-dioxide], for which the Ki is 20.9 nM.

As to `O=C1N(Cc2c(F)cccc2Cl)c2ccccc2S(=O)(=O)N1c1ccc(Cl)cc1` [Example 24, 4-(2-chloro-6-fluorobenzyl)-2-(4-chlorophenyl)-2H-1,2,4-benzothiadiazin-3(4H)-one 1,1-dioxide], the Ki was 7.08 nM.

`Cc1ccc(N2C(=O)N(Cc3c(F)cccc3Cl)c3ccccc3S2(=O)=O)cc1Cl` [Example 25, 4-(2-chloro-6-fluorobenzyl)-2-(3-chloro-4-methylphenyl)-2H-1,2,4-benzothiadiazin-3(4H)-one 1,1-dioxide]: the Ki is 2.51 nM.

In the case of `O=C1N(Cc2c(F)cccc2Cl)c2ccccc2S(=O)(=O)N1c1ccccc1` [Example 26, 4-(2-chloro-6-fluorobenzyl)-2-phenyl-2H-1,2,4-benzothiadiazin-3(4H)-one 1,1-dioxide], the Ki was 79.4 nM.

Consider `Cc1cc(C)cc(N2C(=O)N(Cc3c(F)cccc3Cl)c3ccccc3S2(=O)=O)c1` [Example 27, 4-(2-chloro-6-fluorobenzyl)-2-(3,5-dimethylphenyl)-2H-1,2,4-benzothiadiazin-3(4H)-one 1,1-dioxide], for which the Ki was 0.631 nM.

As for `Cc1ccc(N2C(=O)N(Cc3c(F)cccc3Cl)c3ccccc3S2(=O)=O)cc1` [Example 28, 4-(2-chloro-6-fluorobenzyl)-2-(4-methylphenyl)-2H-1,2,4-benzothiadiazin-3(4H)-one 1,1-dioxide], the Ki was 5.62 nM.

On to `CCOc1ccc(N2C(=O)N(Cc3c(F)cccc3Cl)c3ccccc3S2(=O)=O)cc1` [Example 29, 4-(2-chloro-6-fluorobenzyl)-2-(4-ethoxyphenyl)-2H-1,2,4-benzothiadiazin-3(4H)-one 1,1-dioxide], for which the Ki was 31.6 nM.

For `CC(=O)c1ccc(N2C(=O)N(Cc3c(F)cccc3Cl)c3ccccc3S2(=O)=O)cc1` [Example 30, 2-(4-acetylphenyl)-4-(2-chloro-6-fluorobenzyl)-2H-1,2,4-benzothiadiazin-3(4H)-one 1,1-dioxide], the Ki is 20 nM.

In the case of `Cc1cccc(N2C(=O)N(Cc3c(F)cccc3Cl)c3ccccc3S2(=O)=O)c1` [Example 31, 4-(2-chloro-6-fluorobenzyl)-2-(3-methylphenyl)-2H-1,2,4-benzothiadiazin-3(4H)-one 1,1-dioxide], the Ki is 10.5 nM.
